Assay results from US11235059B2, “Afucosylated anti-FGFR2IIIB antibodies” (Five Prime Therapeutics, Inc., priority 2013, dated 2022).

Columns and labels:
[1] = tested on: OCUM-2M human gastric cancer xenograft with FGFR2 amplification; assay: OCUM-2M gastric cancer xenograft model; format: in vivo, CB17 SCID mice; settings: for tumor response: 10 mg/kg intraperitoneal twice per week
Source text: Six week old female CB17 SCID mice were purchased from Charles River Laboratories (Wilmington, Mass.) and were acclimated for 1 week before the start of the study. Human gastric carcinoma cell line OCUM-2M or breast carcinoma cell line MFM-223 were used as the tumor models. OCUM-2M was purchased from Public University Corporation Osaka City University (OCU, Osaka, Japan), and MFM-223 was purchased from Culture Collections, Public Health England (98050130, HPA Culture Collections, Salisbury, UK). The cells were cultured for up to three passages in complete growth medium to expand for implantation. OCUM-2M and MFM-223 cells were cultured in Dulbecco's […] (DMEM) and Minimum Essential Medium (MEM), respectively. All medium was supplemented with 10% heat-inactivated Fetal Bovine Serum (FBS), 2 mM L-Glutamine, and Penicillin-Streptomycin solution. Cells were grown at 37° C. in a humidified atmosphere with 5% CO2.
When the cultured cells reached 85-90% confluence, cells were harvested and resuspended in cold Ca^2+ and Mg^2+ free phosphate buffered saline (PBS) containing 50% Matrigel (BD BioSciences, San Jose, Calif.). OCUM-2M cells were implanted subcutaneously over the right flank of the mice at 5×10^5 cells/100 μl/mouse. MFM-223 cells were implanted subcutaneously over the right flank of the mice at 5×10^5 cells/100 μl/mouse, and 0.72 mg 90-day release […] estradiol pellets (Innovative Research of America, Sarasota, Fla.) were inoculated subcutaneously into the right flank. Mice were monitored twice weekly following cell implantation for tumor growth. Tumor size was measured according to the formula: Tumor size (mm^3)=([…])/2. When MFM-223 tumors reached 80 mm^3 mice were sorted and randomized (n=10), and treatment was initiated. For OCUM-2M tumors, single therapy with anti-FGFR2b was initiated once tumors reached an average size of 100 mm^3, and combination therapy was initiated once tumors reached an average size of 250 mm^3.
Chemotherapeutic agents were administered via intraperitoneal injection twice per week at 12 mg/kg for paclitaxel, 2.3 mg/kg for fluorouracil (5-FU), and 33 mg/kg for cisplatin. Upon initiation of therapy, tumor sizes were measured in each mouse twice weekly. The length and width of each tumor was measured using calipers and the tumor size calculated according to the formula above. Mice were euthanized when the subcutaneous tumor volumes exceeded 2000 mm^3 or when the tumors became excessively necrotic.
Comparisons of tumor volume […] determined to be statistically significant if P<0.05. P-values were calculated using unpaired, two-tailed t-test analyses of the calculated tumor volumes on the final day upon which tumors were measured.

KATO III cells = assay: ADCC assay with human PBMC effectors, LDH release (Example 3); format: cell-based; settings: E/T 25:1, 16 hours; data not shown
Procedure: (§1) MFM-223 cells were obtained from the Health Protection Agency, UK; OCUM-2M cells were obtained from Osaka City University, Osaka, Japan; and KATO III cells were obtained from ATCC, Rockville, Md. All cells were cultured using standard methods. Freshly isolated PMBC from healthy donors were obtained from AllCells, Emeryville, Calif.
(§2) ADCC assays were conducted using effector cells from 3 independent donors on 3 different days. ADCC assay testing was performed using freshly isolated human PBMCs as effector cells at an effector to target (E/T) cell ratio of 25:1. The target cells were incubated for 16 hours in the presence of effectors and increasing concentrations of antibody. The ADCC assay was validated using 2 positive control antibodies, HERCEPTIN® on SKOV-3 target cells and RITUXIN® on Raji target cells. A fully human IgG1 negative control antibody (Eureka Therapeutics, Catalog ET901, Emeryville, Calif.) was used for non-specific cell cytotoxicity. Cytotoxicity was determined by quantifying LDH release as per the manufacturer's instructions (CytoTox Non Radioactive Cytotoxicity Assay, Promega, Madison, Wis.).
(§3) Maximal lysis was determined in the presence of 5% Triton X-100, and spontaneous release was determined in the absence of antibody. Percentage of specific lysis was calculated as follows, as a percentage of maximal lysis less spontaneous release: (experimental−spontaneous release)/(maximal−spontaneous release)×100=% specific lysis

MFM 223 cells = assay: as above; format: cell-based; settings: data not shown
Procedure: as §1, §2, §3

OCUM-2M cells [2] = assay: as above; format: cell-based; settings: data not shown
Procedure: as §1, §2, §3

[3] = tested on: FGFR2IIIb-expressing Ba/F3 cells; assay: as above; format: cell-based; settings: E/T 25:1, 16 hours
Procedure: Ba/F3 FGFR2IIIb-expressing target cells were produced as follows. Ba/F3 cells acquired from Leibniz-Institut DSMZ-Deutsche Sammlung von Mikroorganismen and Zellkulturen GmbH (DSMZ, cat #ACC300, Braunschweig, Germany) were maintained in RPMI (Mediatech, cat #10-041-CV, Manassas, Va.), supplemented with 10% fetal bovine serum (Mediatech, cat #35-010-CV), 1 ng/mL murine IL-3 (Peprotech, cat #213-13, Rocky Hill, N.J.), 1×BME (Invitrogen, cat #1047574, Grand Island, N.Y.), and 1× Penicillin-streptomycin (Mediatech cat #30-002-C1). […]
ADCC assays were conducted using effector cells from 3 independent donors on 3 different days. […] Cytotoxicity was determined by quantifying LDH release as per the manufacturer's instructions (CytoTox Non Radioactive Cytotoxicity Assay, Promega, Madison, Wis.).
as §3

[4] = tested on: Ba/F3 FGFR2IIIb-expressing target cells; assay: ADCC assay, EC50 by curve fitting (Example 5); format: cell-based; settings: FIG. 9
Procedure: (§4) Ba/F3 FGFR2IIIb-expressing target cells were generated as described before. OCUM-2M cells were obtained from Osaka City University, Osaka, Japan. All cells were cultured using standard methods. Freshly isolated PMBC from healthy donors were obtained from AllCells, Emeryville, Calif.
(§5) ADCC assays were conducted using freshly isolated human PBMCs as effector cells at an effector to target (E:T) cell ratio of 25:1. The target cells were incubated for 16 hours in the presence of effectors and increasing concentrations of antibody. All conditions were tested in triplicate. Cytotoxicity was determined by quantifying LDH release as per the manufacturer's recommendations (Promega's CytoTox Non-Radioactive Cytotoxicity Assay). For the OCUM-2M cells, maximal lysis was determined in the presence of 5% Triton X-100, and spontaneous release was determined in the absence of antibody. Percentage of specific lysis was calculated as a percentage of maximal lysis less spontaneous release, as follows: (experimental−spontaneous release)/(maximal−spontaneous release)×100=% specific lysis. GraphPad software curve-fitting analysis was used to obtain EC50 values.

OCUM-2M cells [5] = assay: ADCC assay, EC50 by curve fitting (Example 5); format: cell-based, human; settings: E:T 25:1, 16 hours, percent specific lysis
Procedure: as §4, §5

[6] = tested on: MFM-223 human breast cancer xenograft; assay: MFM-223 breast cancer xenograft model; format: in vivo, CB17 SCID mice; settings: 5 mg/kg
Source text: Six week old female CB17 SCID mice were purchased from Charles River Laboratories (Wilmington, Mass.) and were acclimated for 1 week before the start of the study. Human gastric carcinoma cell line OCUM-2M or breast carcinoma cell line MFM-223 were used as the tumor models. OCUM-2M was purchased from Public University Corporation Osaka City University (OCU, Osaka, Japan), and MFM-223 was purchased from Culture Collections, Public Health England (98050130, HPA Culture Collections, Salisbury, UK). The cells were cultured for up to three passages in complete growth medium to expand for implantation. […]
When the cultured cells reached 85-90% confluence, cells were harvested and resuspended in cold Ca^2+ and Mg^2+ free phosphate buffered saline (PBS) containing 50% Matrigel (BD BioSciences, San Jose, Calif.). […] Mice were monitored twice weekly following cell implantation for tumor growth. Tumor size was measured according to the formula: Tumor size (mm^3)=(width (mm)×length (mm)^2)/2. […]
Chemotherapeutic agents were administered via intraperitoneal injection twice per week at 12 mg/kg for paclitaxel, 2.3 mg/kg for fluorouracil (5-FU), and 33 mg/kg for cisplatin. Upon initiation of therapy, tumor sizes were measured in each mouse twice weekly. The length and width of each tumor was measured using calipers and the tumor size calculated according to the formula above. […]

αFGFR2bA: afucosylated humanized anti-FGFR2IIIb monoclonal antibody produced in Potelligent CHOK1SV cells; heavy chain SEQ ID NO: 2, light chain SEQ ID NO: 3
final tumor size compared with αFGFR2bF ([1]; 3 mg/kg): notably reduced final OCUM-2M tumor size | tumor growth compared with αFGFR2bF ([1]; 3 mg/kg): reduced tumor growth | tumor regression and durability compared with αFGFR2bF ([1]; 3 mg/kg): greater tumor regression and durable response | durability of response compared with αFGFR2bF ([1]; 10 mg/kg): more durable response | final tumor size compared with αFGFR2bF ([1]; 10 mg/kg): significantly reduced final OCUM-2M tumor size | tumor response [1]: immediate tumor regression | final tumor size ([1]; 1 to 5 mg/kg, higher doses more potent): reduced final OCUM-2M tumor size | tumor growth suppression ([1]; 2, 1.5, and 1 mg/kg): reduced growth suppression | tumor growth suppression ([1]; 3 and 5 mg/kg): greatest suppression and durable response | tumor growth ([1]; all doses: 1, 1.5, 2, 3, or 5 mg/kg, start at about 100 mm^3): inhibited tumor growth | ADCC activity compared with αFGFR2bF (KATO III cells): greater ADCC activity at lower concentrations | ADCC activity compared with αFGFR2bF (MFM 223 cells; E/T 25:1, 16 hours): greater ADCC activity at lower concentrations | maximal specific lysis compared with αFGFR2bF (MFM 223 cells): comparable | ADCC activity compared with αFGFR2bF (OCUM-2M cells [2]; E/T 25:1, 16 hours): greater ADCC activity at lower concentrations | maximal specific lysis compared with αFGFR2bF (OCUM-2M cells [2]): comparable | specific lysis compared with αFGFR2bF [3]: greater specific lysis | ADCC potency compared with αFGFR2bF [4]: higher potency | EC50 (ADCC) (OCUM-2M cells [5]): 0.005 µg/mL | final tumor size compared to albumin control [6]: significantly reduced final MFM-223 tumor size | tumor growth compared to albumin control ([6]; start at about 80 mm^3): dramatically reduced growth of MFM-223 tumors

αFGFR2bF: fucosylated anti-FGFR2IIIb humanized antibody with the same amino acid sequences as αFGFR2bA, produced in CHOK1SV cells [reference compound]
tumor response [1]: immediate tumor regression | EC50 (ADCC) (OCUM-2M cells [5]): 0.03 µg/mL
